Values after ≈ are worked out from the molar mass of the structure shown.
Key:
[1] = Source text: Sephadex LH-20 gel (1.5 cm i.d.×36 cm) was used in the molecular sieve chromatography and methanol was used as the mobile phase.
[2] = Partition coefficient between layers of a two-phase solvent system (HPLC peak area); assay type: physicochemical; conditions: Hexane-EtOAc—MeOH—H2O 12.24.16.9, from peak areas of lower and upper layer
[3] = system: HT29 cells; assay: MTT cell viability assay in HT29 cells; assay type: cell-based, human; conditions: for concentrations that greatly reduced cell viability in HT29 cells: 24 hours, MTT, Table 9; for IC50: Homo sapiens, HT-29, 24 h, read-out: IC50 on HT29 cells
Method: HT cells were treated with the diluted cucrubitacin E and I (100-1.56 μg/ml). After the cells were treated for 24 hours, cell viability was determined by MTT assay, which quantitatively measures the metabolic activity of living cells.
The effects of the extract of Aquilaria agallocha Roxb. hulls on cell toxicity in T24 cells (human bladder carcinoma cells), HT29 cells (human colon adenocarcinoma cells), HeLa cells (cervical carcinoma cells), AGS cells (gastric epithelial cancer cells) and Hep G2 lo cells (human hepatocellular liver carcinoma cells) were tested. The above-mentioned cells were treated with the extract of Aquilaria agallocha Roxb. hulls. The procedures of the cell toxicity test were the same as those mentioned in Example 5.

[4] = system: P-388 leukemia cells; assay: MTT assay in P-388 leukemia cells; assay type: cell-based; conditions: for IC50: Mus musculus, P388, P-388 cells; for concentrations that inhibited cell proliferation in P-388 cells: Table 9
Method: HT cells were treated with the diluted cucrubitacin E and I (100-1.56 μg/ml). After the cells were treated for 24 hours, cell viability was determined by MTT assay, which quantitatively measures the metabolic activity of living cells. […] Please see Table 9.
In addition to HT29 cells, P-388 leukemia cells were also determined by MTT assay. […] Please see Table 9.

[5] = system: HT29 cells; assay: Cell morphology of HT29 cells, Giemsa staining, optical microscope; assay type: cell-based, human; conditions: different concentrations, 24 hours, 10% Giemsa, FIG. 4
[6] = system: HT29 cells; assay: Cell cycle distribution of HT29 cells by flow cytometry; assay type: cell-based, human; conditions: increasing concentrations, FIG. 5
Source text: The cell cycle of treated cells was examined by flow cytometry.

SMILES	solubility, in words [1]	partition coefficient [2]	concentrations that greatly reduced cell viability in HT29 cells [3]	IC50 [3]	IC50 [4]	concentrations that inhibited cell proliferation in P-388 cells [4]	cell morphology of HT29 cells [5]	cell cycle distribution, sub-G1 population [6]
O=c1c2cc(O)c(O)cc2oc2cc(O)c([C@@H]3O[C@H](CO)[C@@H](O)[C@H](O)[C@H]3O)c(O)c12 [mangiferin]	hard to dissolve in methanol							
CC(C)(O)/C=C/C(=O)[C@](C)(O)C1[C@H](O)C[C@@]2(C)C3CC=C4C(C=C(O[C@@H]5OC(CO)[C@@H](O)C(O)C5O)C(=O)C4(C)C)[C@]3(C)C(=O)C[C@]12C (some centres unmarked) [cucurbitacin I glucoside]		0.03						
CC(C)(O)/C=C/C(=O)[C@](C)(O)C1[C@H](O)C[C@@]2(C)C3CC=C4C(C=C(O)C(=O)C4(C)C)[C@]3(C)C(=O)C[C@]12C (some centres unmarked) [Cucurbitacin I, cucurbitacin I]		0.42	> 15.8 µM	15.8 µg/mL (≈ 30.7 µM)	7.4 µg/mL (≈ 14.4 µM)	> 7.4 µM	the nucleus were squeezed and the chromatin was condensed	sub-G1 populations increased
CC(=O)OC(C)(C)/C=C/C(=O)[C@](C)(O)C1[C@H](O)C[C@@]2(C)C3CC=C4C(C=C(O[C@@H]5OC(CO)[C@@H](O)C(O)C5O)C(=O)C4(C)C)[C@]3(C)C(=O)C[C@]12C (some centres unmarked) [cucurbitacin E glucoside]		0.05						
CC(=O)OC(C)(C)/C=C/C(=O)[C@](C)(O)C1[C@H](O)C[C@@]2(C)C3CC=C4C(C=C(O)C(=O)C4(C)C)[C@]3(C)C(=O)C[C@]12C (some centres unmarked) [Cucurbitacin E, cucurbitacin E]		0.90	above 14.1 μM	14.1 µg/mL (≈ 25.3 µM)	6.5 µg/mL (≈ 11.7 µM)	above 6.5 μM	the nucleus were squeezed and the chromatin was condensed	sub-G1 populations increased

Source: patent publication US8168238B2, “Extracts of Aquilaria hulls and use thereof in the treatment of cancer” (priority 2009, dated 2012)
